US10072011B2, “Substituted bridged urea analogs as sirtuin modulators” (GlaxoSmithKline Intellectual Property (No.2) Limited, priority 2014, dated 2018)

Target: T1, SIRT1 (Homo sapiens, UniProt Q96EB6)
T1 sequence (Q96EB6 1-747): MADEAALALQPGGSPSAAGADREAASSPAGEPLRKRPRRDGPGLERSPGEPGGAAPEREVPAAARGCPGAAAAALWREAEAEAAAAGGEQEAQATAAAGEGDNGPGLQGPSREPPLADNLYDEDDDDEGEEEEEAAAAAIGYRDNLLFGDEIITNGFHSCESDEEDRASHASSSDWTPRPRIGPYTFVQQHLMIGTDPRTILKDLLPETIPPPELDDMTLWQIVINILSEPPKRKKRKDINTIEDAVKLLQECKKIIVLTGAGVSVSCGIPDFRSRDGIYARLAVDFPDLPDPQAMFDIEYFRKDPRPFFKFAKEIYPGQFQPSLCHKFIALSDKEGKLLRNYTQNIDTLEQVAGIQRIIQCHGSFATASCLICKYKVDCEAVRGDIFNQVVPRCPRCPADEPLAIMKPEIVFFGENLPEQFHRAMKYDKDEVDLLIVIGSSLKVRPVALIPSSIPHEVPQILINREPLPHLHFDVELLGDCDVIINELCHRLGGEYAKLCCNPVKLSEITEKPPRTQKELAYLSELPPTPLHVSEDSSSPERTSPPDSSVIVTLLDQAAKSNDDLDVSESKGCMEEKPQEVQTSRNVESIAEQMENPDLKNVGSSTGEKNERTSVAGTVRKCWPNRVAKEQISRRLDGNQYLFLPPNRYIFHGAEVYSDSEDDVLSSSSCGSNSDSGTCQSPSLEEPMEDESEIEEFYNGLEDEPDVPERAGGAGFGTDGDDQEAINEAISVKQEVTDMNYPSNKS
Assay: Trp mass spectrometry assay of SIRT1 activation (Ac-R-H-K-K(Ac)-W-NH2 peptide)
Assay type: biochemical
Conditions: Trp peptide 0.5 μM, 120 μM βNAD+, 10 nM SIRT1, 25 min at 25° C.; for Emax: 25 min, relative to control (100%), read-out: TRP MAX RESP (percent maximum fold activation)
Procedure, shortened: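 N-terminal His-tagged human SIRT1, expressed in BL21(DE3) and purified, was incubated 25 min with an acetylated Trp peptide and NAD plus test compound at varying concentrations, then quenched with formic acid. OAADPR or deacetylated peptide was quantified by mass spectrometry versus compound-free control; EC1.5 is the concentration giving 50% activity increase, with percent maximum activation.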

`O=C(NC(CO)C1CC1)c1ccc2c(n1)N(C(=O)Nc1ccccn1)[C@H]1CCN2C1` (single isomer, unassigned) [Example 58] was tested, and the Emax was over 150% and the “TRP Activity (EC1.5, concentration of test compound that results in 150% activation of SIRT1)” value was “A (EC1.5<1 μM)”.
For `CN(CC(F)(F)F)C(=O)c1ccc2c(n1)N(C(=O)Nc1ccccn1)[C@H]1CCN2C1` [Example 254, (4S)—N7-methyl-N5-(pyridin-2-yl)-N7-(2,2,2-trifluoroethyl)-3,4-dihydro-1,4-methanopyrido[2,3-b][1,4]diazepine-5,7(2H)-dicarboxamide], the Emax was over 150% and the “TRP Activity (EC1.5, concentration of test compound that results in 150% activation of SIRT1)” value was “B (EC1.5 1-25 μM)”.
With `O=C(NC1CC1(F)F)c1ccc2c(n1)N(C(=O)Nc1ccccn1)[C@H]1CCN2C1` (single isomer, unassigned) [Example 43] the Emax was over 150% and the “TRP Activity (EC1.5, concentration of test compound that results in 150% activation of SIRT1)” value was “A (EC1.5<1 μM)”.
For `Cc1ncc(-c2ccnc(NC(=O)N3c4nc(C(=O)N[C@H](C)C(F)(F)F)cc(C)c4N4CC[C@H]3C4)c2)o1` [Example 252, (4S)-9-methyl-N5-(4-(2-methyloxazol-5-yl)pyridin-2-yl)-N7-((R)-1,1,1-trifluoropropan-2-yl)-3,4-dihydro-1,4-methanopyrido[2,3-b][1,4]diazepine-5,7(2H)-dicarboxamide], the Emax was under 150% and the “TRP Activity (EC1.5, concentration of test compound that results in 150% activation of SIRT1)” value was “A (EC1.5<1 μM)”.
`NCC(F)(F)CNC(=O)c1ccc2c(n1)N(C(=O)Nc1ccccn1)[C@H]1CCN2C1` [Example 94, (4S)—N7-(3-amino-2,2-difluoropropyl)-N5-(pyridin-2-yl)-3,4-dihydro-1,4-methanopyrido[2,3-b][1,4]diazepine-5,7(2H)-dicarboxamide] was tested, and the Emax was over 150% and the “TRP Activity (EC1.5, concentration of test compound that results in 150% activation of SIRT1)” value was “B (EC1.5 1-25 μM)”.
In the case of `C[C@@H](NC(=O)c1ccc2c(n1)N(C(=O)Nc1ccc(OC[C@@H](O)CO)cn1)[C@H]1CCN2C1)C(F)(F)F` [Example 153, (4S)—N5-(5-((S)-2,3-dihydroxypropoxy)pyridin-2-yl)-N7-((R)-1,1,1-trifluoropropan-2-yl)-3,4-dihydro-1,4-methanopyrido[2,3-b][1,4]diazepine-5,7(2H)-dicarboxamide], the Emax is reported as over 150% and the “TRP Activity (EC1.5, concentration of test compound that results in 150% activation of SIRT1)” value is reported as “A (EC1.5<1 μM)”.
In the case of `NC(CNC(=O)c1ccc2c(n1)N(C(=O)Nc1ccccn1)[C@H]1CCN2C1)C(F)(F)F` (single isomer, unassigned) [Example 49], the Emax is reported as over 150% and the “TRP Activity (EC1.5, concentration of test compound that results in 150% activation of SIRT1)” value is reported as “B (EC1.5 1-25 μM)”.
`Cc1nn(C)cc1-c1ccnc(NC(=O)N2c3nc(C(=O)N[C@H](C)C(F)(F)F)ccc3N3CC[C@H]2C3)c1` [Example 84, (4S)—N5-(4-(1,3-dimethyl-1H-pyrazol-4-yl)pyridin-2-yl)-N7-((R)-1,1,1-trifluoropropan-2-yl)-3,4-dihydro-1,4-methanopyrido[2,3-b][1,4]diazepine-5,7(2H)-dicarboxamide] was tested, and the Emax was over 150% and the “TRP Activity (EC1.5, concentration of test compound that results in 150% activation of SIRT1)” value was “A (EC1.5<1 μM)”.
In the case of `Cc1cnnc(NC(=O)N2c3nc(C(=O)N[C@H](C)C(F)(F)F)ccc3N3CC[C@H]2C3)c1` [Example 300, (4S)—N5-(5-methylpyridazin-3-yl)-N7-((R)-1,1,1-trifluoropropan-2-yl)-3,4-dihydro-1,4-methanopyrido[2,3-b][1,4]diazepine-5,7(2H)-dicarboxamide], the Emax is reported as under 150% and the “TRP Activity (EC1.5, concentration of test compound that results in 150% activation of SIRT1)” value is reported as “A (EC1.5<1 μM)”.
With `C#C[C@H](C)NC(=O)c1ccc2c(n1)N(C(=O)Nc1ccccn1)[C@H]1CCN2C1` [Example 142, (4S)—N7-((S)-but-3-yn-2-yl)-N5-(pyridin-2-yl)-3,4-dihydro-1,4-methanopyrido[2,3-b][1,4]diazepine-5,7(2H)-dicarboxamide] the Emax was over 150% and the “TRP Activity (EC1.5, concentration of test compound that results in 150% activation of SIRT1)” value was “A (EC1.5<1 μM)”.
